Our source for the GI50 and TGI values is PubChem BioAssay (NCI).

Holding throughout (test): inhibition of tumour cell growth, NCI panel, 48 h
Assay [1] relates to IGROV1 ovarian.
In assay [2] the test system is K-562 leukemia.
For assay [3], the system named is M14 melanoma.
Assay [4] deals with OVCAR-4 ovarian.
For assay [5], the system named is NCI-H23 lung.
Assay [6] deals with RPMI-8226 leukemia.
In assay [7] the test system is OVCAR-3 ovarian.
Assay [8] has as its system KM12 colon.
Assay [9] deals with HCT-15 colon.
Assay [10] has as its system HCC-2998 colon.

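Cells were grown in 96-well plates and exposed to each compound for 48 hours at five concentrations; endpoints were interpolated linearly between bracketing concentrations, or set to the highest concentration if not reached. GI50 marks 50% less growth. TGI: total growth inhibition.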

Turning to `COc1c/c(=C2\C=c3ccccc3=N2)[nH]/c1=C\c1[nH]c(C)cc1C`, the GI50 in assay [1] is 0.102 µM; in [2] it was 0.0685 µM; in assay [3], 0.64 µM; in [4] it was 0.0638 µM; in [5] it was 0.0986 µM; in assay [6], less than 0.0151 µM. The GI50 in assay [7] is less than 0.0109 µM; in assay [8], 0.0216 µM; in assay [9] it was less than 0.0225 µM; in [10], 0.185 µM. Besides, the TGI in assay [1] is 17.7 µM; in assay [2] it was 8.33 µM; in assay [3], greater than 31.9 µM; in assay [4], 4.83 µM; in [5], 7.08 µM; in assay [6] it was 2.9 µM. For the same compound, the TGI came out at 0.202 µM in assay [7], 10.6 µM in assay [8], 4.33 µM in assay [9] and 33.7 µM in assay [10].
Turning to `Cc1cc2c(C(=O)NC[C@H](C)c3ccccc3)c(O)c(O)cc2c(O)c1-c1c(C)cc2c(C(=O)NC[C@H](C)c3ccccc3)c(O)c(O)cc2c1O`, the GI50 in [1] is 0.0909 µM; in assay [2], 0.17 µM; in assay [3], 0.438 µM; in [4] it was 0.446 µM; in assay [5], 0.0571 µM; in assay [6], 0.185 µM. Besides, the GI50 is 0.306 µM in assay [7], 0.107 µM in assay [8], 0.208 µM in assay [9] and 0.932 µM in [10]. Moreover, the TGI is 11.3 µM in [1]; 7.69 µM in [2]; 5.72 µM in [3]; 8.3 µM in assay [4]; 1.65 µM in assay [5]; 5.41 µM in [6]. The TGI in assay [7] turned out to be 1.55 µM; in assay [8], 2.24 µM; in assay [9], 12.6 µM; in assay [10], 3.08 µM.
Take `Cc1nn(CNc2ccccc2C(F)(F)F)c(=S)n1/N=C/c1cccc2cccnc12`: the GI50 was 52.3 µM in [1]; 35.8 µM in assay [2]; 57.9 µM in [3]; 44.3 µM in [4]; greater than 100 µM in assay [5]; 28.8 µM in assay [6]. Moreover, the GI50 was greater than 100 µM in assay [7], 43.7 µM in assay [8], 24.3 µM in [9] and greater than 100 µM in assay [10]. The TGI in [1], in assay [2], in assay [3], in [4], in assay [5] and in assay [6] was greater than 100 µM in each case. The TGI in assay [7], in assay [8], in [9] and in assay [10] was greater than 100 µM each time.
For the compound `C=C[C@@H](C)[C@]1(C(=O)OC)CCCC12OCCO2`, the TGI in assay [1], in assay [2], in assay [3], in [4], in assay [6] and in assay [7] was greater than 100 µM in each case. Moreover, the TGI in [8], in [9] and in assay [10] was greater than 100 µM throughout.
Regarding `CN(CCS(=O)(=O)N1C(=O)C2CCCN2C(=O)[C@@H]1Cc1ccccc1)C(=O)OCc1ccccc1` (stereo partly specified), the TGI in [1] is greater than 100 µM; in assay [2], greater than 100 µM; in assay [3], greater than 100 µM; in assay [4], greater than 100 µM; in [5], greater than 100 µM; in [6] it was 45.4 µM. The TGI in assay [7], in assay [8], in assay [9] and in assay [10] was greater than 100 µM throughout.
In the case of `COc1ccc2ncn(-c3cc(O[C@H](C)c4ccccc4C(F)(F)F)c(C(N)=O)s3)c2c1`, the GI50 in assay [1] is 0.312 µM; in assay [2] it was 0.109 µM; in [3], 0.0989 µM; in assay [4] it was 3.49 µM; in assay [5], 0.113 µM; in assay [6], 0.627 µM. In addition, the GI50 is 0.0858 µM in assay [7], 0.0794 µM in assay [8], 0.134 µM in assay [9] and 0.161 µM in assay [10]. Moreover, the TGI in assay [1] came out at 10.5 µM; in [2], 19.4 µM; in [3], 3.23 µM; in assay [4], 16.1 µM; in assay [5], 5.9 µM; in assay [6], 8.44 µM. The TGI was determined as 0.863 µM in assay [7], 3.04 µM in assay [8], 17.2 µM in [9] and 3.27 µM in assay [10].
For the compound `CC(C)C[C@H](NC(=O)CNC(=O)c1cc(Cl)ccc1Cl)B(O)O`, the GI50 was 0.0498 µM in assay [1]; 0.03 µM in assay [2]; 0.0202 µM in assay [3]; 0.061 µM in assay [4]; 0.0282 µM in assay [5]; less than 0.01 µM in assay [6]. Besides, the GI50 in assay [7] is less than 0.0141 µM; in assay [8] it was 0.0295 µM; in assay [9], 0.0272 µM; in assay [10], 0.0199 µM. The TGI is 0.283 µM in assay [1]; 1.21 µM in assay [2]; 5.45 µM in assay [4]; 0.0162 µM in [6]; 0.0292 µM in assay [7]; 0.101 µM in assay [8]. Moreover, the TGI in assay [10] is 0.0436 µM.
Take `O=C(/C=C\c1ccccc1O)c1ccc(O)cc1O`: the TGI in assay [1], in [2], in assay [3], in [4], in assay [5] and in assay [6] was greater than 100 µM each time. Moreover, the TGI in [7], in [8], in assay [9] and in [10] was greater than 100 µM in each case.
For the compound `O=C1[C@H]2ON(c3ccccc3)C(c3ccc([N+](=O)[O-])cc3)[C@H]2C(=O)N1c1ccc(Cc2ccc(N3C(=O)[C@@H]4ON(c5ccccc5)C(c5ccc([N+](=O)[O-])cc5)[C@@H]4C3=O)cc2)cc1` (stereo partly specified), the TGI is greater than 100 µM in assay [1]; greater than 100 µM in [2]; 38.9 µM in [3]; greater than 100 µM in assay [4]; greater than 100 µM in [5]; greater than 100 µM in assay [6]. The TGI in assay [7], in assay [8], in assay [9] and in assay [10] was greater than 100 µM throughout.
With `Cc1cnc2ccc(C)c([N+](=O)[O-])c2c1NCCCN(C)C`, the TGI in assay [2], in assay [3], in [4], in [5], in assay [6] and in [7] was greater than 100 µM throughout. Further, the TGI in [8], in assay [9] and in assay [10] was greater than 100 µM in each case.
Take `C/C(=N\N=C(N)N)C(CN1CCCCC1)C(c1ccccc1)c1c(O)c2ccccc2oc1=O` (stereo unspecified): the TGI in assay [1], in assay [2], in assay [3], in assay [4], in assay [5] and in assay [6] was greater than 100 µM throughout. The TGI in assay [7], in [9] and in assay [10] was greater than 100 µM throughout.
Take `C[C@@H](Oc1cc(-n2cnc3ccc(OC4CCN(C)CC4)cc32)sc1C(N)=O)c1ccccc1Cl`: the GI50 is 0.0622 µM in assay [1]; 0.0102 µM in [2]; 1.62 µM in assay [4]; 0.0183 µM in [5]; 0.0842 µM in [6]; 0.00858 µM in assay [7]. The GI50 in assay [8] was 0.00886 µM; in assay [9], 0.0827 µM; in assay [10] it was 0.0234 µM. Besides, the TGI was 6.88 µM in assay [1]; 4.9 µM in [2]; 9.09 µM in assay [4]; 5.18 µM in [5]; 6.66 µM in [6]; 3.2 µM in assay [7]. Also, the TGI came to 2.97 µM in assay [8], 3.55 µM in [9] and 2.98 µM in [10].
With `CCOC(=O)Cc1c(C)c2cc(C(=O)c3ccccc3)c(O)cc2oc1=O`, the TGI in assay [1] is greater than 100 µM; in assay [2] it was 71.8 µM; in assay [3], greater than 100 µM; in assay [4] it was greater than 100 µM; in [5] it was 46.6 µM; in [6], greater than 100 µM. Also, the figures for the TGI in assay [7], in [9] and in assay [10] were 53.8 µM, greater than 100 µM and greater than 100 µM, respectively.
For `CC1(C)OC2C(CCP(=O)(O)O)OC(c3nc(C(N)=O)cs3)C2O1` (stereo unspecified), the TGI in assay [1], in assay [2], in [3], in [4], in assay [5] and in assay [6] was greater than 100 µM each time. For the same compound, the TGI in [8], in assay [9] and in [10] was greater than 100 µM each time.
As to `O=C(CN(/C=C/C(=O)C(F)(F)F)c1ccc(Cl)cc1)c1ccc(Cl)cc1`, the GI50 is 1.79 µM in assay [1]; 5.93 µM in [2]; 12 µM in assay [4]; 6.3 µM in assay [5]; 11.5 µM in [6]; 4.52 µM in assay [7]. Further, the GI50 in [8] was 3.59 µM; in assay [9], 6.83 µM; in assay [10], 15.7 µM. Besides, the TGI came to 7.96 µM in assay [1]; 32.5 µM in [2]; 32.4 µM in assay [4]; 20.9 µM in [5]; 37.7 µM in [6]; 17.3 µM in assay [7]. The values for the TGI in assay [8], in assay [9] and in [10] were 20.8 µM, 20.4 µM and 35 µM, respectively.
Take `Nc1nc(/C=C\c2ccc([N+](=O)[O-])s2)nc(N2CCN(c3ccccc3)CC2)n1`: the GI50 is 14.5 µM in assay [1]; 15.3 µM in [2]; 19.5 µM in assay [3]; 40.6 µM in assay [4]; 22.9 µM in assay [6]; 19 µM in [7]. Further, the GI50 is 16.6 µM in assay [8], 14.6 µM in assay [9] and 22.2 µM in [10]. Also, the TGI in [1] was 34.7 µM; in assay [2], 49.5 µM; in assay [3], 39.3 µM; in [4], greater than 100 µM; in assay [6] it was 74 µM; in assay [7], 35.9 µM. The TGI in assay [8] is 38.7 µM; in [9] it was 28.3 µM; in assay [10], 44.8 µM.
As for `COc1ccc(Cc2c3cc(O)c(=O)cc-3ccn2C)cc1`, the TGI was greater than 100 µM in assay [1]; greater than 100 µM in [2]; 30.5 µM in assay [3]; greater than 100 µM in [4]; greater than 100 µM in assay [5]; greater than 100 µM in assay [6]. The TGI in assay [7], in assay [8] and in [10] was greater than 100 µM each time.
`CNC(=O)c1c(C)oc2cc(Oc3ncnc4cc(OC)c(OC)cc34)ccc12`: the GI50 in assay [1], in [2], in assay [4], in assay [5], in assay [6] and in assay [7] was greater than 100 µM throughout. Besides, the GI50 in assay [8], in assay [9] and in [10] was greater than 100 µM throughout. The TGI in assay [1], in [2], in [4], in assay [5], in assay [6] and in [7] was greater than 100 µM in each case. Also, the TGI in assay [8], in [9] and in assay [10] was greater than 100 µM throughout.
With `CC1Cc2c(Cl)ncnc2N(C)c2ccc(Cl)cc21` (stereo unspecified), the GI50 in assay [1] was 0.468 µM; in [2], 0.496 µM; in assay [3], 0.312 µM; in assay [4] it was 0.422 µM; in assay [5], 0.316 µM; in [6] it was 0.441 µM. In addition, the GI50 in assay [7] is 0.21 µM; in assay [9] it was 0.331 µM; in [10], 0.307 µM. For the same compound, the TGI is greater than 100 µM in assay [1]; greater than 100 µM in assay [2]; 29.7 µM in assay [3]; greater than 100 µM in assay [4]; 2.2 µM in assay [5]; 17.1 µM in assay [6]. For the same compound, the TGI in [7] was 0.477 µM; in assay [9], greater than 100 µM; in assay [10], 58.1 µM.
